Source: PMC6132687, “Stem cells are the most sensitive screening tool to identify toxicity of GATA4-targeted novel small-molecule compounds” (Archives of Toxicology, 2018)

Columns and labels:
[1] = test system: stem cell and progenitor cell viability; test: Toxicity classification from MTT screening across cell types; details: based on effects on stem cell and progenitor cell viability
Procedure: The cells were exposed to the test compounds for 24 h and cytotoxicity was quantified with MTT and LDH assays as described previously (Talman et al. [2011]). For the determination of cell membrane integrity, 50 µl of medium from each well was transferred onto a new 96-well plate followed by addition of 50 µl of substrate solution containing 1.3 mM β-nicotinamide adenine dinucleotide, 660 µM iodonitrotetrazolium, 54 mM L(+)-lactic acid, 280 µM phenazine methosulphate and 0.2 M Tris–HCl (pH 8.0). After a 30-min incubation, the reaction was stopped by adding 50 µl of 1 M acetic acid to each well and absorbance was measured at 490 nm using Victor2 plate reader (PerkinElmer, Turku, Finland). Spontaneous LDH release was measured from untreated cells, maximal LDH release from cells lysed with 0.9% Triton X-100 and background absorbance was measured from wells without cells. After background extraction, cytotoxicity was calculated as follows: cytotoxicity (%) = [(sample − spontaneous LDH release)/(maximal LDH release − spontaneous LDH release)] × 100. For quantification of metabolic activity, 3-(4,5-dimethylthiazol-2-yl)-2,5-diphenyltetrazolium bromide (MTT) was added to the cells at a final concentration of 0.5 mg/ml followed by 2 h incubation in cell culture conditions. The medium was then aspirated and formazan crystals were solubilized in DMSO. Absorbance was measured at 550 nm and absorbance at 650 nm was subtracted as background.
When comparing the effects of different compounds within each individual cell type, the compounds can be grouped into two main classes: toxic (3i-1000, 3i-1120, 3i-1148 and 3i-1229) and non-toxic (3i-1047, 3i-1051, 3i-1165, and 3i-1228) compounds. Based on the hiPSC toxicity data, 3i-1148 can be considered as the most toxic compound with an IC50 of 0.30 µM (Fig. 5b).

[2] = test system: GATA4–NKX2-5 transcriptional synergy; test: Luciferase reporter assay of GATA4–NKX2-5 synergistic gene activation in COS-1 cells; format: cell-based, African green monkey; details: 24 h treatment, normalized to DMSO
Procedure: COS-1 cells were used to investigate the compound effects on GATA4–NKX2-5 synergistic gene activation using a luciferase reporter assay (Kinnunen et al. [2015]). Toxicity profiling was carried out in eight cell types: the H9c2 myoblast cell line, NRVCs, CFs, mESCs, MEFs, mESC derivatives from day 5 embryoid bodies (D5EBs), hiPSCs and hiPSC-CMs. All cell cultures were maintained at 37 °C in a humidified atmosphere of 5% carbon dioxide (CO2) and the regular growth medium was used for compound exposures. Cell culture methods and cardiomyocyte differentiation from human pluripotent stem cells are described in Supplementary Information.
The empty expression plasmid MT2 (pMT2) and mouse Gata4 expressing pMT2-Gata4 plasmids were gifts from D. B. Wilson (Department of Pediatrics, St. Louis Children’s Hospital) (Arceci et al. [1993]). The luciferase reporter plasmid pGL3-3xHA containing three Nkx2-5 high-affinity binding sites has been described previously (Kinnunen et al. [2015]). To create mouse Nkx2-5 expressing pMT2-Nkx2-5, the cDNA was cloned from pFLCI-Nkx2-5 (clone D330001C20, Imagenes), which was a kind gift from R. Kerkelä (University of Oulu, Finland), with primers containing the EcoRI restriction site (forward: 5′-[…]-3′ and reverse 5′-[…]-3′) and ligated to pMT2 EcoRI site. The correct clone was identified by digestion with specific restriction enzymes and the sequence was verified by DNA sequencing (DNA Sequencing and Genomics Laboratory, Institute of Biotechnology, University of Helsinki, Finland).
COS-1 cells grown on 96-well plates were transfected with the luciferase reporter plasmid pGL3-3xHA (100 ng/well) and equal amounts of expression vectors pMT2-Gata4 and pMT2-Nkx2-5 (total of 50 ng/well) using Fugene 6 (Promega) at a reagent:DNA ratio of 3:1. Cells transfected with either pMT2, pMT2-Gata4 or pMT2-Nkx2-5 were used to confirm synergistic transactivation of the reporter gene in all experiments. After 6 h of transfection, the cells were treated with compounds or vehicle (0.1% dimethyl sulfoxide, DMSO) and the luminescence was measured 24 h later using Neolite Reporter Gene Assay System (PerkinElmer, Turku, Finland) according to manufacturer’s instructions and Victor2 plate reader (PerkinElmer, Turku, Finland). Each compound was tested in three technical replicates in at least two independent experiments.
A luciferase reporter assay with an artificial promoter containing three high-affinity binding sites for NKX2-5 was used to evaluate the effects of the compounds on GATA4–NKX2-5 transcriptional synergy (Kinnunen et al. [2015]). We have previously shown that while GATA4 alone induces only minimal activation of this promoter, it strongly potentiates NKX2-5-mediated transactivation (Kinnunen et al. [2015]; Välimäki et al. [2017]).

SMILES	toxicity class (toxic / non-toxic) [1]	effect on GATA4- and NKX2-5-induced gene activation (luciferase reporter activity) [2]
CCN(CC)c1ccc(NC(=O)c2ccsc2)cc1 [3i-1051]	non-toxic	ineffective
CCN(CC)c1ccc(NC(=O)c2c(-n3cccc3)sc(C)c2C)cc1 [3i-1165]	non-toxic	only a weak effect
CCN(CC)c1ccc(NC(=O)c2c(-c3coc(C)n3)noc2C)cc1 [3i-1228]	non-toxic	ineffective
